In patent US20220324835A1 (Nurix Therapeutics, Inc., priority 2018, published 2022):
Read-outs that look alike come from different tables or passages of the source.

How the values were obtained:
Type in all cases: cell-based
[1] = system: primary human total T-cells; assay: T-cell activation assessed by cytokine secretion (GM-CSF, IFNγ, TNFα)
Outline: (§1)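 Readouts are fold change versus compound-free cells under the same stimulation: plate-bound anti-CD3 (OKT3, 10 μg/mL coating) alone or with soluble anti-CD28 at 5 μg/mL, for 48 h. Isolated human total T cells (1×10^5/well) got inhibitor 1 h beforehand at concentrations such as 10, 1.11 or 0.123 μM. Measured: GM-CSF/IFNγ/TNFα secretion, surface CD69, proliferation by dye dilution.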

[2] = system: primary human total T-cells; assay: T-cell activation assessed by cell proliferation (Cell Trace Violet)
Outline: as §1

primary human NK cells = assay: NK cell activation assessed by cytokine secretion (coculture with K562 NucRed target cells); details: K562, NK cells cocultured with K562 NucRed, 1:1 E/T; for fold induction at 0.625 µM: 0.625 μM compound; for fold induction at 2.5 µM: 2.5 μM compound; for fold induction at 10 µM: 10 μM compound
Outline: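 Primary NK cells from donor PBMC, IL-2 (60 ng/mL) overnight, then Cbl-b inhibitor (e.g. 10, 1 or 0.1 μM; DMSO <0.1%) for 1 h before 6 h coculture with K562 NucRed at effector:target ratios such as 5:1, 1:1 or 1:5. Supernatant IFNγ, TNFα, MIP1β measured by ELISA or Luminex; fold change over inhibitor-free baseline, >2.0-fold positive.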

[3] = system: primary human total T-cells; assay: T-cell activation assessed by CD69 expression
Outline: as §1

[4] = CD3/CD28 stimulation, read-out: GM-CSF secretion
[5] = CD3/CD28 stimulation, read-out: IFNγ secretion
[6] = CD3/CD28 stimulation, read-out: TNFα secretion
[7] = CD3 alone stimulation, read-out: GM-CSF secretion
[8] = CD3 alone stimulation, read-out: IFNγ secretion
[9] = CD3 alone stimulation, read-out: TNFα secretion
[10] = CD3/CD28 stimulation, CD4 T-cells, read-out: % CP (cell proliferation) (CD4)
[11] = CD3/CD28 stimulation, CD8 T-cells, read-out: % CP (cell proliferation) (CD8)
[12] = CD3 alone stimulation, CD8 T-cells, read-out: % CP (cell proliferation) (CD8)
[13] = read-out: IFNγ secretion, fold change over baseline
[14] = read-out: TNFα secretion, fold change over baseline
[15] = CD3/CD28 stimulation, CD4 T-cells, read-out: % CD69+ (CD4)
[16] = CD3/CD28 stimulation, CD8 T-cells, read-out: % CD69+ (CD8)
[17] = CD3 alone stimulation, CD4 T-cells, read-out: % CD69+ (CD4)
[18] = CD3 alone stimulation, CD8 T-cells, read-out: % CD69+ (CD8)

Row | Structure (SMILES) | fold induction at 1.11 µM [1, 4] | fold induction at 1.11 µM [1, 5] | fold induction at 1.11 µM [1, 6] | fold induction at 10 µM [1, 4] | fold induction at 10 µM [1, 5] | fold induction at 10 µM [1, 6] | fold induction at 1.11 µM [1, 7] | fold induction at 1.11 µM [1, 8] | fold induction at 1.11 µM [1, 9] | fold induction at 10 µM [1, 7] | fold induction at 10 µM [1, 8] | fold induction at 10 µM [1, 9] | fold induction at 1.11 µM [2, 10] | fold induction at 10 µM [2, 10] | fold induction at 1.11 µM [2, 11] | fold induction at 10 µM [2, 11] | fold induction at 1.11 µM [2, 12] | fold induction at 10 µM [2, 12] | fold induction at 0.625 µM (primary human NK cells; [13]) | fold induction at 0.625 µM (primary human NK cells; [14]) | also measured
1 | Cn1cnnc1[C@@H]1C[C@@H]1c1cccc(N2Cc3c(ccnc3C(F)(F)F)C2=O)c1 [Compound 369, 2-{3-[(1S,2R)-2-(4-methyl-4H-1,2,4-triazol-3-yl)cyclopropyl]phenyl}-4-(trifluoromethyl)-1H,2H,3H-pyrrolo[3,4-c]pyridin-1-one] | ≤ 1.5 | < 2 | ≤ 1.5 | 2.01 to 4 | < 2 | 2.01 to 4 | ≤ 1.5 | < 2 | ≤ 1.5 | ≤ 1.5 | < 2 | 1.51 to 2 | < 2 | > 4 | < 2 | 2.01 to 3 | < 2 | < 2 | < 1 | < 1 | fold induction at 2.5 µM (primary human NK cells; [13]): 1.01 to 2; fold induction at 2.5 µM (primary human NK cells; [14]): < 1; fold induction at 10 µM (primary human NK cells; [13]): 2.01 to 5; fold induction at 10 µM (primary human NK cells; [14]): 1.01 to 2; fold induction at 1.11 µM [3, 15]: ≤ 1.2; fold induction at 10 µM [3, 15]: 1.4 to 1.6; fold induction at 1.11 µM [3, 16]: ≤ 1.2; fold induction at 10 µM [3, 16]: 1.2 to 1.4; fold induction at 1.11 µM [3, 17]: ≤ 1.2; fold induction at 10 µM [3, 17]: ≤ 1.2; fold induction at 1.11 µM [3, 18]: ≤ 1.2; fold induction at 10 µM [3, 18]: ≤ 1.2
2 | Cc1cc2c(c(C3CC3)n1)CN(c1cccc([C@H](C)Cc3nncn3C)c1)C2=O [Compound 372, 4-cyclopropyl-6-methyl-2-{3-[(2R)-1-(4-methyl-4H-1,2,4-triazol-3-yl)propan-2-yl]phenyl}-1H,2H,3H-pyrrolo[3,4-c]pyridin-1-one] | ≤ 1.5 | < 2 | ≤ 1.5 | 2.01 to 4 | < 2 | 2.01 to 4 | ≤ 1.5 | < 2 | ≤ 1.5 | 1.51 to 2 | < 2 | ≤ 1.5 | < 2 | > 4 | < 2 | 2.01 to 3 | < 2 | 2.01 to 3 | 1.01 to 2 | < 1 | fold induction at 2.5 µM (primary human NK cells; [13]): 1.01 to 2; fold induction at 2.5 µM (primary human NK cells; [14]): < 1; fold induction at 10 µM (primary human NK cells; [13]): 2.01 to 5; fold induction at 10 µM (primary human NK cells; [14]): 1.01 to 2; fold induction at 1.11 µM [3, 15]: ≤ 1.2; fold induction at 10 µM [3, 15]: 1.2 to 1.4; fold induction at 1.11 µM [3, 16]: ≤ 1.2; fold induction at 10 µM [3, 16]: 1.2 to 1.4; fold induction at 1.11 µM [3, 17]: ≤ 1.2; fold induction at 10 µM [3, 17]: 1.2 to 1.4; fold induction at 1.11 µM [3, 18]: ≤ 1.2; fold induction at 10 µM [3, 18]: 1.2 to 1.4
3 | CNCc1ccc(C(=O)Nc2cccc([C@H](C)Cc3nncn3C)c2)nc1C1CC1 [Compound 376, (R)-6-cyclopropyl-N-(3-(1-(4-methyl-4H-1,2,4-triazol-3-yl)propan-2-yl)phenyl)-5-((methylamino)methyl)picolinamide] | 2.01 to 4 | < 2 | 2.01 to 4 | > 4 | < 2 | 2.01 to 4 | 1.51 to 2 | 2.01 to 3 | ≤ 1.5 | 2.01 to 4 | 3.01 to 4 | 1.51 to 2 | > 4 | > 4 | 3.01 to 4 | > 4 | > 4 | > 4 | 1.01 to 2 | 1.01 to 2 | fold induction at 2.5 µM (primary human NK cells; [13]): 1.01 to 2; fold induction at 2.5 µM (primary human NK cells; [14]): 1.01 to 2; fold induction at 10 µM (primary human NK cells; [13]): 2.01 to 5; fold induction at 10 µM (primary human NK cells; [14]): 2.01 to 5; fold induction at 1.11 µM [3, 15]: 1.4 to 1.6; fold induction at 10 µM [3, 15]: > 1.6; fold induction at 1.11 µM [3, 16]: 1.2 to 1.4; fold induction at 10 µM [3, 16]: 1.2 to 1.4; fold induction at 1.11 µM [3, 17]: > 1.6; fold induction at 10 µM [3, 17]: > 1.6; fold induction at 1.11 µM [3, 18]: 1.2 to 1.4; fold induction at 10 µM [3, 18]: 1.4 to 1.6
